Results taken from ChEMBL document CHEMBL1811778, “The discovery and development of inhibitors of fatty acid amide hydrolase (FAAH)” (Bioorg Med Chem Lett, 2011).

Legend:
[1] = molecular target: T1, Fatty-acid amide hydrolase 1 (Homo sapiens, UniProt O00519); experiment: Inhibition of FAAH
T1 sequence (O00519 whole entry): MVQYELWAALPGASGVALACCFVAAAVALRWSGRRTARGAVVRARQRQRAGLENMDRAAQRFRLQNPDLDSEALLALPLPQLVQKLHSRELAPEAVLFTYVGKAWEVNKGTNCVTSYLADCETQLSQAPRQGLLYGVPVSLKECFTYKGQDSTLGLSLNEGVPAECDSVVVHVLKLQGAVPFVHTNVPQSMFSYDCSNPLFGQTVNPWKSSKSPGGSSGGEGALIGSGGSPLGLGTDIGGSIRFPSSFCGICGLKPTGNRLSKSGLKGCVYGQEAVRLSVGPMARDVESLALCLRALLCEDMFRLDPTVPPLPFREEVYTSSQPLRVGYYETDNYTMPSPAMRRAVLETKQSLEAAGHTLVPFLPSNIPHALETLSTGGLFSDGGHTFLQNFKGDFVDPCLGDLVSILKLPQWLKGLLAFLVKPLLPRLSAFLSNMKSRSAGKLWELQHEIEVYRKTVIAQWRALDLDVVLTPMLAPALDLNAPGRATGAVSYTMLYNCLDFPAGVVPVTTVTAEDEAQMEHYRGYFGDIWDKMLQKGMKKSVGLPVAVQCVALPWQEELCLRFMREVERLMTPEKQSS

[2] = molecular target: T2, Fatty-acid amide hydrolase 1 (Rattus norvegicus, UniProt P97612); experiment: Inhibition of rat FAAH assessed as conversion [14]C-oleamide to oleic acid
T2 sequence (P97612 whole entry): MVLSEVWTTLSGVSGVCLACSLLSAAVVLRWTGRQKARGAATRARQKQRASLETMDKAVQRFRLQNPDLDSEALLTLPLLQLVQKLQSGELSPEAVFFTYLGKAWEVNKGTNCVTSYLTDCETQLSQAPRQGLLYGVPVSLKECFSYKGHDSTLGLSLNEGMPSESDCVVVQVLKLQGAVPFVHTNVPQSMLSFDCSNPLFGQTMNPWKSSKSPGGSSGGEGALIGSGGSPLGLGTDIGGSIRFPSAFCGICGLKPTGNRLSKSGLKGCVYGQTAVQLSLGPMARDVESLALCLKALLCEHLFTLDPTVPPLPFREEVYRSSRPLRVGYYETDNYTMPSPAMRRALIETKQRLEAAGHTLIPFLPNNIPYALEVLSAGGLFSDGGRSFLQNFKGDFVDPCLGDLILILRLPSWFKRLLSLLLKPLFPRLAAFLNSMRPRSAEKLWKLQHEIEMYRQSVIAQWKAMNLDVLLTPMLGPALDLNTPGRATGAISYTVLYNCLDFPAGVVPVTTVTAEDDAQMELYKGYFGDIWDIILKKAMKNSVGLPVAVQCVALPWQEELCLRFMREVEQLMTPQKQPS

[3] = molecular target: T1, Fatty-acid amide hydrolase 1; experiment: Reversible inhibition of human FAAH
Rattus norvegicus = experiment: In vivo inhibition of rat FAAH at 0.3 mg/kg, ip after 16 hrs; assay type: functional; conditions: route intraperitoneal

CCCCCCCCCCCCCC(=O)c1nc2ncccc2o1
Ki [1]: 1.7 nM

CCCCCCCCCCCCCCCC(=O)c1nc2ncccc2o1
Ki [1]: 1.9 nM

Cc1ccc2nc(-c3ccc(NC(=O)C4CCN(S(=O)(=O)c5cccs5)CC4)cc3)sc2c1
IC50 [1]: 18 nM

O=C(CCCCCCc1ccccc1)c1ncc(-c2cccnn2)o1
Ki [1]: 5.6 nM

O=C(N1CCN(c2cccc(C(F)(F)F)c2)CC1)n1nnc2ccc(-c3ccc(Cl)cc3)nc21
IC50 [1]: 2 nM

CCCCCCCC/C=C\CCCCCCCC(=O)c1nccn1C
Ki [2]: > 100000 nM

O=C(CCCCCCc1ccccc1)c1ncc(-c2cnccn2)o1
Ki [1]: 5.3 nM

CCCCCCCC/C=C\CCCCCCCC(=O)c1nc2cccnc2o1
Ki [2]: 11 nM

CCCCCCCCCCCCCCCCCC(=O)c1nc2ncccc2o1
Ki [1]: 11 nM

CCCCCCCC(=O)c1nc2ncccc2o1
Ki [1]: 0.69 nM

CCn1ccc2cc(-c3ccc4oc(N5Cc6ccccc6C5)nc4c3)ccc21
IC50 [3]: 1.3 nM

CCCCCCCC/C=C\CCCCCCC(=O)C(=O)OCC
Ki [1]: 1.4 nM

CCCCCCCCCC(=O)c1nc2ncccc2o1
Ki [1]: 0.75 nM

COc1ccc(N2CCN(C(=O)n3nnc4ccc(N5CCCC5)nc43)CC2)cc1
IC50 [1]: 1 nM

CCCCCCCCCCCC(=O)c1nc2ncccc2o1
Ki [1]: 0.57 nM

CCCCCCCC/C=C\CCCCCCCC(=O)c1nc2cnccc2o1
Ki [2]: 7.2 nM

O=C(CCCCCCc1ccccc1)c1ncc(-c2cscn2)o1
Ki [1]: 5.8 nM

CC(=O)c1nc2ncccc2o1
Ki [1]: > 100000 nM

CCCCCC(=O)c1nc2ncccc2o1
Ki [1]: 15 nM

O=C(CCCCCCc1ccccc1)c1ncc(-c2ncccn2)o1
Ki [1]: 4.6 nM

CCn1c(=O)n(C2CCCN(c3nccc(-c4cc5ccccc5o4)n3)C2)c2ccccc21 (configuration not stated)
IC50 [3]: 10 nM

CCN(CC)S(=O)(=O)N1CCc2c(ccnc2Nc2cnc3ccccc3c2)C1
IC50 [3]: < 100 nM

CCCCCCCC/C=C\CCCCCCCC(=O)C1=NCCO1
Ki [2]: 4500 nM

O=C(CCCCCCc1ccccc1)c1ncc(-c2cocn2)o1
Ki [1]: 4.6 nM

CCCCCCCC/C=C\CCCCCCC(=O)C(N)=O
Ki [1]: 16 nM

CCCCCCCC/C=C\CCCCCCC(=O)C(F)(F)F
Ki [1]: 2 nM

O=C(N1CCC(Oc2ccc(OCc3cccc(F)c3)cc2)CC1)n1ccnc1
IC50 [1]: 0.093 nM

CCCCCCCC/C=C\CCCCCCC=O
Ki [1]: 40 nM

CCCCC(=O)c1nc2ncccc2o1
Ki [1]: 50 nM

CCCCCCC(=O)c1nc2ncccc2o1
Ki [1]: 2.1 nM

NC(=O)c1cccc(-c2cccc(OC(=O)NC3CCCCC3)c2)c1 [URB-597]
inhibition in vivo at 0.3 mg/kg (Rattus norvegicus): 70%

CN(CCCCCl)C(=O)n1cnc(-c2ccccc2)c1
IC50 [1]: 78 nM
